Reference: ChEMBL document CHEMBL5465560, “Selectivity Literature for EUbOPEN Chemogenomic Library” (2024)
Blank lines part the entries; values can stand above or below the compound they belong to.

Key:
[1] = target: Dual specificity testis-specific protein kinase 1 (Homo sapiens) (UniProt Q15569); test: Selectivity interaction (LanthaScreen Eu Kinase Binding Assay) EUB0001632a TESK1; details: at 10 µM
[2] = target: Tyrosine-protein kinase JAK1 (Homo sapiens, UniProt P23458); test: Selectivity interaction (KinomeScan (DiscoverX)) EUB0000666a JAK1; details: at 10 µM
[3] = target: T1, Mitogen-activated protein kinase 15 (Homo sapiens) (UniProt Q8TD08); test: Selectivity interaction (Kinase panel (literature)) EUB0001199aCl MAPK15; details: at 1 µM
T1 sequence (whole entry): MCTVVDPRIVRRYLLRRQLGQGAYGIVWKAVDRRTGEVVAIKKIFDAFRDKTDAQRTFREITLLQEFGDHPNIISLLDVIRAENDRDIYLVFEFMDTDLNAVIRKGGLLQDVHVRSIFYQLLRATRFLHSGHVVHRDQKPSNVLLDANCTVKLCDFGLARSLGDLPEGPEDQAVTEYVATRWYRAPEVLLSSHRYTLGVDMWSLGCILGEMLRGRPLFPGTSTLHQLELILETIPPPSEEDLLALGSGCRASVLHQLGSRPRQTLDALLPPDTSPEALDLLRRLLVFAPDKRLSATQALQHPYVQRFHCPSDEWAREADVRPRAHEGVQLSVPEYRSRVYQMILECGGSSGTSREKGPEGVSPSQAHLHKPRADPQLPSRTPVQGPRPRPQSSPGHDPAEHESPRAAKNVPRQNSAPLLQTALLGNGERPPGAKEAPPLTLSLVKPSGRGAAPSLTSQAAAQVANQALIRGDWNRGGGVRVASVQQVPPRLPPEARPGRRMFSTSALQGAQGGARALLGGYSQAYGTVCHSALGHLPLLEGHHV

[4] = target: T2, Serine/threonine-protein kinase 17B (Homo sapiens) (UniProt O94768); test: Selectivity interaction (KinomeScan (DiscoverX)) EUB0000607a STK17B; details: at 10 µM
T2 sequence (whole entry): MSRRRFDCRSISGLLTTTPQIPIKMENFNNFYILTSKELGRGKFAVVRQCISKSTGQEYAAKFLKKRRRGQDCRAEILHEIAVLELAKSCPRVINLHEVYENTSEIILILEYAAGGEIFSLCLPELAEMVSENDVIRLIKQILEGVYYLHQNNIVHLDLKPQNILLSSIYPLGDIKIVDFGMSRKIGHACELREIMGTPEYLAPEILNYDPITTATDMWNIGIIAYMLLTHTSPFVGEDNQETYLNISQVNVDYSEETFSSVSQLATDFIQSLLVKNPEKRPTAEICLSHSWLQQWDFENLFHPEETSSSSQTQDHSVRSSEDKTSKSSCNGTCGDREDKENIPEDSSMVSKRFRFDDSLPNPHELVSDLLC

[5] = target: T3, Tyrosine-protein kinase receptor TYRO3 (Homo sapiens) (UniProt Q06418); details: at 10 µM
T3 sequence (whole entry): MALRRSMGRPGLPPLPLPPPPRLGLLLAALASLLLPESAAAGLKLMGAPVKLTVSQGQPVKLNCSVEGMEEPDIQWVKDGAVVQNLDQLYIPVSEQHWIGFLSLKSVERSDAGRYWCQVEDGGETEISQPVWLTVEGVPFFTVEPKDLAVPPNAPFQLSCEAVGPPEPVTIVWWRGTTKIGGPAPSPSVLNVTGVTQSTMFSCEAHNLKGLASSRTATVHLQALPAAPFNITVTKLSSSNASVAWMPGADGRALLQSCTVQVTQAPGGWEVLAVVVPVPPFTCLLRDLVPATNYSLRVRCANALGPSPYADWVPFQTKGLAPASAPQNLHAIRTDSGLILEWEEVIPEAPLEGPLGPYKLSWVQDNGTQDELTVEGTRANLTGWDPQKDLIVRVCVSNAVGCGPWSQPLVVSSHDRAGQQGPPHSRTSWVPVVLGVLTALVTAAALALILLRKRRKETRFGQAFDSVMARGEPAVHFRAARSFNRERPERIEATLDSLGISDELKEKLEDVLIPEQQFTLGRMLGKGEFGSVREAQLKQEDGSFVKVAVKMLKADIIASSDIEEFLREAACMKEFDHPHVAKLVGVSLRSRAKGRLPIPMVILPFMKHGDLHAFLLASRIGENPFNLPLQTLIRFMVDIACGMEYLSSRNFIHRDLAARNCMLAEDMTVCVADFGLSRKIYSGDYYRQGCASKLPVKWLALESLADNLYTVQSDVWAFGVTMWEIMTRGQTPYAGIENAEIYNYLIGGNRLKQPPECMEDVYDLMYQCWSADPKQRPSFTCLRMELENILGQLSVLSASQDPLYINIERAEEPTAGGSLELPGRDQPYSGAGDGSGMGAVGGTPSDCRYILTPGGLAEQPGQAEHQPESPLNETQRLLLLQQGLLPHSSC

[6] = target: 5'-AMP-activated protein kinase catalytic subunit alpha-1 (Homo sapiens, UniProt Q13131); test: Selectivity interaction (KinomeScan (DiscoverX)) EUB0000045b PRKAA1
[7] = target: Histone-lysine N-methyltransferase SUV39H2 (Homo sapiens) (UniProt Q9H5I1); details: at 1 µM
[8] = target: Wee1-like protein kinase (Homo sapiens) (UniProt P30291); test: Selectivity interaction (KinomeScan (DiscoverX)) EUB0000092b WEE1; details: at 10 µM
[9] = target: LIM domain kinase 2 (Homo sapiens) (UniProt P53671); test: Selectivity interaction (KinomeScan (DiscoverX)) EUB0000092b LIMK2; details: at 10 µM
[10] = target: Ribosomal protein S6 kinase beta-1 (Homo sapiens, UniProt P23443); test: Selectivity interaction (KinomeScan (DiscoverX)) EUB0000618a RPS6KB1; details: at 10 µM
[11] = target: Dual specificity testis-specific protein kinase 1 (Homo sapiens) (UniProt Q15569); test: Selectivity interaction (KinomeScan (DiscoverX)) EUB0001619a TESK1; details: at 1 µM
[12] = target: T4, Uncharacterized serine/threonine-protein kinase SBK3 (Homo sapiens) (UniProt P0C264); test: Selectivity interaction (KinomeScan (DiscoverX)) EUB0001619a SBK3; details: at 1 µM
T4 sequence (whole entry): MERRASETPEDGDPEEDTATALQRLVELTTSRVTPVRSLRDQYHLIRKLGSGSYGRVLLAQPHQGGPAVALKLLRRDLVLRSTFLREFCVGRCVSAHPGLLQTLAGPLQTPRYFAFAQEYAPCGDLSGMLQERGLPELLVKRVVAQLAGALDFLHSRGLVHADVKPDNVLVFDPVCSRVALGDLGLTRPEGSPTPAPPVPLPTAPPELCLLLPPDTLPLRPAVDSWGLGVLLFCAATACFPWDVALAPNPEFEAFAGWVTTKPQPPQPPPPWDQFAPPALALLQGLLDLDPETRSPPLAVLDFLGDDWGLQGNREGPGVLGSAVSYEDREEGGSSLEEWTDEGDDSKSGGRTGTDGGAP

[13] = target: STE20-like serine/threonine-protein kinase (Homo sapiens, UniProt Q9H2G2); test: Selectivity interaction (ActivX KiNativ screen (ex vivo kinase selectivity in human PBMCs)) EUB0001619a SLK; assay type: cell-based; details: PBMC, at 1 µM
Sequence of STE20-like serine/threonine-protein kinase (Q9H2G2 whole entry, looked up): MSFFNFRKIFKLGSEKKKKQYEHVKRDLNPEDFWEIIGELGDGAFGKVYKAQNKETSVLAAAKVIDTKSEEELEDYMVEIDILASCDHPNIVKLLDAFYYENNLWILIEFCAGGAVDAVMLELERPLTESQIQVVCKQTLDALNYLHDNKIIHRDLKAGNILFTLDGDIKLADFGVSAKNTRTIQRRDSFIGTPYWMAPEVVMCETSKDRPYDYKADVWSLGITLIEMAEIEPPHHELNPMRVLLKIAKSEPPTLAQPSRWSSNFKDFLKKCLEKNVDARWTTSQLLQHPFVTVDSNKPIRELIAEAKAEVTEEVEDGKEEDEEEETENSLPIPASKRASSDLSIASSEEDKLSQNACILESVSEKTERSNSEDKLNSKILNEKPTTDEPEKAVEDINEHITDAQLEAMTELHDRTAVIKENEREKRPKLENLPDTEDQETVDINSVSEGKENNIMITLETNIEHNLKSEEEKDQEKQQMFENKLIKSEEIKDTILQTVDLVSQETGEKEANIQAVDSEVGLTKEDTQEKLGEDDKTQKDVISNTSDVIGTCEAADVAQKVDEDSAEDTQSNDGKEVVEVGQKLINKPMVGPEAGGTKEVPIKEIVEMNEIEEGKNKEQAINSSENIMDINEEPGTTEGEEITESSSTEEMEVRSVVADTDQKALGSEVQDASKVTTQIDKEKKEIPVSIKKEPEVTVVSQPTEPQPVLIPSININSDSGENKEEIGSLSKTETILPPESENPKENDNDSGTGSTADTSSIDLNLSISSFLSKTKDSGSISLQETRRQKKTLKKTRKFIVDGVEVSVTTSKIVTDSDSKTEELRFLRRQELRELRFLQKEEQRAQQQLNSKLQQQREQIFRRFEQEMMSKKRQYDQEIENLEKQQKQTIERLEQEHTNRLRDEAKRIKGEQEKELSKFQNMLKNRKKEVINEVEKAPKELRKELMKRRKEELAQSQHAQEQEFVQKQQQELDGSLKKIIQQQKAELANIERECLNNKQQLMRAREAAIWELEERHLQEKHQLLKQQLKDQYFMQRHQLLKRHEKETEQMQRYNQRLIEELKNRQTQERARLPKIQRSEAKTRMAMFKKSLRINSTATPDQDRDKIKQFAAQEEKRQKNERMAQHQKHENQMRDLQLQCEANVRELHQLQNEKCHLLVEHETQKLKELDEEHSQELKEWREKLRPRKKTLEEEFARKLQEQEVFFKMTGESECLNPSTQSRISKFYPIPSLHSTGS

Sequence of 5'-AMP-activated protein kinase catalytic subunit alpha-1 (Q13131 whole entry, looked up): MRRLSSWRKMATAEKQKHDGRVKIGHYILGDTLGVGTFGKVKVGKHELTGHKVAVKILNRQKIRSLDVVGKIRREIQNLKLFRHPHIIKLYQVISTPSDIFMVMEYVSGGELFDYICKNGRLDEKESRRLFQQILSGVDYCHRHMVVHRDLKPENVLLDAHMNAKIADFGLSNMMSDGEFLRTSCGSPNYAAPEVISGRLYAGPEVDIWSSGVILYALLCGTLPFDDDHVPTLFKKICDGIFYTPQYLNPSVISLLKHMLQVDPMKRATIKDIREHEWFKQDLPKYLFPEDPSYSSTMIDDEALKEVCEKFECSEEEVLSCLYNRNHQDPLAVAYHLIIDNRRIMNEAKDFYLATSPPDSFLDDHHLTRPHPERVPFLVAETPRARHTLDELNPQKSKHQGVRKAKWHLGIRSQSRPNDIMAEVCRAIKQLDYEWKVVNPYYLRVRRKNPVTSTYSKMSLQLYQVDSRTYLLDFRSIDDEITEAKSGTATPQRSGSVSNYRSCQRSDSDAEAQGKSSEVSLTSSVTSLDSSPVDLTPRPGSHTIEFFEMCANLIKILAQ
Sequence of Dual specificity testis-specific protein kinase 1 (Homo sapiens) (Q15569 whole entry, looked up): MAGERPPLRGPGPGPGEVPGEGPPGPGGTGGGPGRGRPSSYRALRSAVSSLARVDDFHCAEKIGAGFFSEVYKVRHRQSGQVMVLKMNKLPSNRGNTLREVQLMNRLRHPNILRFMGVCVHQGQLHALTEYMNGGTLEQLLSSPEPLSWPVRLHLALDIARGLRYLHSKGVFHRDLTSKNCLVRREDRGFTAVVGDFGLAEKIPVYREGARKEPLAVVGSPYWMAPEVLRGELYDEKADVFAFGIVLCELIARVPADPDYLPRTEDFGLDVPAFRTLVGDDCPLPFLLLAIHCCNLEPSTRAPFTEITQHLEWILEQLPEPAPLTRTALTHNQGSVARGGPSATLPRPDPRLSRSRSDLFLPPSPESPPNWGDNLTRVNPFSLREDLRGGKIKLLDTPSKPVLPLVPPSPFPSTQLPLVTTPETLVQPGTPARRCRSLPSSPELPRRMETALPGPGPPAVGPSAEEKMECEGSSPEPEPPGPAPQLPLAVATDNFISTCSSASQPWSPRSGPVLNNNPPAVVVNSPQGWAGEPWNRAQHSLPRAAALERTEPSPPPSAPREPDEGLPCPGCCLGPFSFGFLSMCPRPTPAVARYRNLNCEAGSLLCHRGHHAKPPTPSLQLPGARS
Sequence of LIM domain kinase 2 (Homo sapiens) (P53671 whole entry, looked up, the tested form may be a part): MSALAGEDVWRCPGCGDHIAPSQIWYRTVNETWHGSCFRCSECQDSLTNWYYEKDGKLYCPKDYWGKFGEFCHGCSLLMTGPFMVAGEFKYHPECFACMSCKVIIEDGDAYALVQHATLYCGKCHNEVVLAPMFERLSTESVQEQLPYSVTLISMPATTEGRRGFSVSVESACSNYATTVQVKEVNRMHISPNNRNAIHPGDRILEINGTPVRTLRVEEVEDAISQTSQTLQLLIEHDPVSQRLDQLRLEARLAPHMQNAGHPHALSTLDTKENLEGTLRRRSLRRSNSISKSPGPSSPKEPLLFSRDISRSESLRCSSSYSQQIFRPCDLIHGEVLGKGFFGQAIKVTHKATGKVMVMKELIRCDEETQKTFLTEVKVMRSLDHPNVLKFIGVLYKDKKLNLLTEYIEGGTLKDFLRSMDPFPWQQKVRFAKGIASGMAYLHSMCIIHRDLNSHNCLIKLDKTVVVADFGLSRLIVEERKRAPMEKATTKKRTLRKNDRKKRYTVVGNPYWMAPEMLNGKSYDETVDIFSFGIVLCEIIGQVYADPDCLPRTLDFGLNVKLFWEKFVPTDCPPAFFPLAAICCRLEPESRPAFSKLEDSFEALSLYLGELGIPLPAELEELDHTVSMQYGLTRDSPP
Sequence of Ribosomal protein S6 kinase beta-1 (P23443 whole entry, looked up): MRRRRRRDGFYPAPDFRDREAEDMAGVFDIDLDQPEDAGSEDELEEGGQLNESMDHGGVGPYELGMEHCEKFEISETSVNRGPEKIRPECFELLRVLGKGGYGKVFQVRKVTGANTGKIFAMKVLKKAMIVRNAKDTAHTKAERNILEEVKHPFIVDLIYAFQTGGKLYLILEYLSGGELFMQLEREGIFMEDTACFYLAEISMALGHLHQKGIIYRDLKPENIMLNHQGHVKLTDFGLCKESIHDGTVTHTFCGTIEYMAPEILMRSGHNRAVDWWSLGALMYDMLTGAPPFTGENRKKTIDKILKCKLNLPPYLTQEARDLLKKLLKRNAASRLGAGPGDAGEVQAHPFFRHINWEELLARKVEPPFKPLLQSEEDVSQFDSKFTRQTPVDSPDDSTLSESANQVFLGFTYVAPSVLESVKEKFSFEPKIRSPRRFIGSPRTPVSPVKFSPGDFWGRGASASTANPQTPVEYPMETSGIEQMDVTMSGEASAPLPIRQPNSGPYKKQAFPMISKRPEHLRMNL
Sequence of Histone-lysine N-methyltransferase SUV39H2 (Homo sapiens) (Q9H5I1 whole entry): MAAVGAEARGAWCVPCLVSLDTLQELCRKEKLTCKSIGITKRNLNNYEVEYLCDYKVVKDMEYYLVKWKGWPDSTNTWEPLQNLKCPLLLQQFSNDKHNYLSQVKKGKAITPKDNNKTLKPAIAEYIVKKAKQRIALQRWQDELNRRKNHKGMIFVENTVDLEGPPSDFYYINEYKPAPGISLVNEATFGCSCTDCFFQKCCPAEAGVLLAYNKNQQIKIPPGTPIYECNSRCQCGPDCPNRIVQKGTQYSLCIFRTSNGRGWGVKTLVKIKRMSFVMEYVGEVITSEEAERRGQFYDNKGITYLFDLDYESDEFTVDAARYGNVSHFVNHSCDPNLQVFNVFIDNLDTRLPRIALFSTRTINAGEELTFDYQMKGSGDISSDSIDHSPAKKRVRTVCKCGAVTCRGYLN
Sequence of Wee1-like protein kinase (Homo sapiens) (P30291 whole entry, looked up, the tested form may be a part): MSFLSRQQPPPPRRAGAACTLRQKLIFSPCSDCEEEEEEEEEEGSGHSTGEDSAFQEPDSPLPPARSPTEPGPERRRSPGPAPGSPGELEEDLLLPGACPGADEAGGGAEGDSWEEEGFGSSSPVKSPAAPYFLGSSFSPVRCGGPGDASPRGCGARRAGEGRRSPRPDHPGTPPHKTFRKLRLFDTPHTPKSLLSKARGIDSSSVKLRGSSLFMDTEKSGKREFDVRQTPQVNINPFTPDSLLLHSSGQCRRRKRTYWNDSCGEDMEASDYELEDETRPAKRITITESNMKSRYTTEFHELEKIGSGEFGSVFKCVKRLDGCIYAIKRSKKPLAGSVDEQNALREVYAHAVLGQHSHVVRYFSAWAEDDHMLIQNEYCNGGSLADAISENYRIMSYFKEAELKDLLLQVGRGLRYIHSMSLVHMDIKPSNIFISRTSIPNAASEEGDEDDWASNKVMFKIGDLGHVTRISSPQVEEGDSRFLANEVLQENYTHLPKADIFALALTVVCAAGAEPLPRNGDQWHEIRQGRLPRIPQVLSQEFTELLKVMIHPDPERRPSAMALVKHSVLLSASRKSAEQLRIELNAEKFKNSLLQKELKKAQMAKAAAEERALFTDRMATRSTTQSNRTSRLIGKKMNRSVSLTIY

% of inhibition [1]: -5.55%
Compound: Cn1cc(-n2cnc3c(NCc4nc5cc(Cl)c(Cl)cc5[nH]4)nc(N4CCOCC4)nc32)cn1

Compound: O=C(NOC[C@H](O)CO)c1ccc(F)c(F)c1Nc1ccc(I)cc1F
% of control [2]: 100%

Compound: CN1Cc2nccc(-c3cn(C)nc3-c3ccc(F)cc3)c2C1=O
% of inhibition [3]: 10%

Compound: CNC(=O)Nc1ccc(-c2nc(N3CC4CCC(C3)O4)c3cnn(C4CCC5(CC4)OCCO5)c3n2)cc1
% of control [4]: 100%

% of control [5]: 100%
Compound: CCN(CC)CCCCNc1ncc2cc(-c3cc(OC)cc(OC)c3)c(NC(=O)NC(C)(C)C)nc2n1

Compound: C=CC(=O)Nc1cc(-n2c(=O)ccc3cnc4ccc(-c5ccc(NS(C)(=O)=O)cc5)cc4c32)ccc1C
% of control ([6]; at 1 µM): 100%
% of control ([6]; at 10 µM): 100%

% activity [7]: > 90%
Compound: CNCCN1CCC(c2cc(CN(C)C(=O)c3cccc(Oc4ccccc4)c3)ccn2)CC1

Compound: CCC(=O)N1CCN(c2ccc(-n3c(=O)ccc4cnc5ccc(-c6cnc7ccccc7c6)cc5c43)cc2C(F)(F)F)CC1
% of control [8]: 42%
% of control [9]: 4.8%

Compound: O[C@H]1CC[C@H](Nc2ncc3nc(Nc4c(F)cc(F)cc4F)n([C@H]4CCOC4)c3n2)CC1
% of control [10]: 80%

Compound: N#Cc1cccc(-c2c[nH]c3ncnc(N4CCOCC4)c23)c1
% of control [11]: 100%
% of control [12]: 100%
% of inhibition [13]: 61%
